{
  "source": "ChEMBL document CHEMBL5338755",
  "about": "“Thiophene Carboxamide Analogs with Long Alkyl Chains Comprising Ethylene Glycol Units Inhibit Glioblastoma Cell Proliferation by Activating AMPK” (J Med Chem, 2023)",
  "key": {"Glioblastoma stem cell [1]": {"tested_on": "Glioblastoma stem cell", "assay": "Activation of AMPK in human Glioblastoma stem cell assessed as increase in AMPK phosphorylation level at 500 nM measured after 48 hrs", "assay_type": "cell-based"}, "Glioblastoma stem cell [2]": {"tested_on": "Glioblastoma stem cell", "assay": "Inhibition of cell proliferation of human Glioblastoma stem cell assessed as reduction in viable cell number at 100 to 500 nM measured after 72 hrs by trypan blue exclusion assay", "assay_type": "functional, cell-based", "details": "dose 100-500 nM"}, "Glioblastoma stem cell [3]": {"tested_on": "Glioblastoma stem cell", "assay": "Activation of AMPK in human Glioblastoma stem cell assessed as inhibition of cell growth at 500 nM measured after 48 hrs", "assay_type": "cell-based"}, "Glioblastoma stem cell [4]": {"tested_on": "Glioblastoma stem cell", "assay": "Inhibition of cell proliferation of human Glioblastoma stem cell assessed as reduction in viable cell number at 500 nM measured after 72 hrs by trypan blue exclusion assay", "assay_type": "functional, cell-based"}, "[5]": {"assay": "Antiproliferative activity against human Glioblastoma stem cell assessed as reduction in cell count at 100 to 500 nM measured after 72 hrs by trypan blue exclusion assay", "assay_type": "functional", "details": "dose 100-500 nM"}, "U-251 [6]": {"tested_on": "U-251", "assay": "Synergistic antiproliferative activity against human U-251 cells assessed as combination index at ED50 concentration incubated for 6 days in presence of temozolomide by trypan blue staining based automated cell counter analysis", "assay_type": "functional", "details": "time 6 day"}, "U-251 [7]": {"tested_on": "U-251", "assay": "Synergistic antiproliferative activity against human U-251 cells incubated for 6 days in presence of temozolomide by trypan blue staining based automated cell counter analysis", "assay_type": "functional", "details": "U-251, 144 h, time 6 day, read-out: ED50 (the source's name)"}, "Glioblastoma cell line [8]": {"tested_on": "Glioblastoma cell line", "assay": "Antitumor activity against human Glioblastoma stem cell xenografted in mouse model assessed as improvement in event-free survival rate at 10 mg/kg, ip administered 3 times in a week for 40 days", "assay_type": "functional, organism-based", "details": "time 40.0 day"}, "Glioblastoma stem cell [9]": {"tested_on": "Glioblastoma stem cell", "assay": "Activation of AMPK in human Glioblastoma stem cell assessed as increase in AMP/ATP ratio at 500 nM measured after 48 hrs", "assay_type": "cell-based", "details": "filed as activator"}, "[10]": {"assay": "Toxicity in CB-17 SCID mouse xenografted with human SW48 cells assessed as drug tolerance at 20 mg/kg administered daily and measured after 3 weeks", "assay_type": "organism-based", "details": "in vivo, 504 h"}, "Glioblastoma stem cell [11]": {"tested_on": "Glioblastoma stem cell", "assay": "Activation of AMPK in human Glioblastoma stem cell assessed as decrease in intracellular ATP level at 500 nM measured after 48 hrs by celltiter-glo luminescent cell viability assay", "assay_type": "cell-based", "details": "filed as activator"}, "Glioblastoma cell line [12]": {"tested_on": "Glioblastoma cell line", "assay": "Antitumor activity against human Glioblastoma stem cell xenografted in mouse model assessed as suppression of tumor growth by measuring luminescence signals at 10 mg/kg, ip administered 3 times in a week for and measured after 3 weeks by IVIS Lumina XR imaging system", "assay_type": "functional, organism-based"}, "SW48": {"tested_on": "SW48", "assay": "Antitumor activity against human SW48 cells xenografted in CB-17 SCID mouse assessed as reduction in tumor size at 20 mg/kg administered daily and measured after 3 weeks by vernier caliper method (reference value: 997+/-180 mm3)", "assay_type": "functional"}, "[13]": {"assay": "Toxicity in CB-17 SCID mouse xenografted with human SW48 cells assessed as body weigh loss at 20 mg/kg administered daily and measured after 3 weeks", "assay_type": "organism-based", "details": "in vivo, 504 h"}, "Glioblastoma stem cell [14]": {"tested_on": "Glioblastoma stem cell", "assay": "Activation of AMPK in human Glioblastoma stem cell assessed as increase in intracellular AMP level at 500 nM measured after 48 hrs by AMP-Glo assay", "assay_type": "cell-based", "details": "filed as activator"}, "U-251 [15]": {"tested_on": "U-251", "assay": "Synergistic antiproliferative activity against human U-251 cells assessed as combination index at ED75 concentration incubated for 6 days in presence of temozolomide by trypan blue staining based automated cell counter analysis", "assay_type": "functional", "details": "time 6 day"}},
  "note": "pEC50: −log10 of the molar value. Calls of active or inactive are those of the source. No cut-off for these calls is given here.",
  "data": [
    {"smiles": "CCCCCCCCCOCCOCCOCCOCCCCCCCCCCCCNC(=O)c1ccsc1", "values": [
      {"measurement": "Activity", "setting": "Glioblastoma stem cell [1]; filed as activator", "value": "Active"},
      {"measurement": "inhibition", "setting": "Glioblastoma stem cell [2]", "value": "Active"},
      {"measurement": "Activity", "setting": "Glioblastoma stem cell [3]; filed as activator", "value": "Active"}
    ]},
    {"smiles": "COCCOCCOCCOCCCCCCCCCCCCNC(=O)c1cscc1Br", "values": [
      {"measurement": "inhibition", "setting": "Glioblastoma stem cell [4]", "value": "Active"}
    ]},
    {"smiles": "O=C(NCCCCCCCCCCCCOCCOCCOCCO)c1ccsc1", "values": [
      {"measurement": "inhibition", "setting": "Glioblastoma stem cell [2]", "value": "inactive"}
    ]},
    {"smiles": "COCCOCCOCCOCCCCCCCCCCCCNC(=O)c1cscc1C", "values": [
      {"measurement": "inhibition", "setting": "Glioblastoma stem cell [2]", "value": "inactive"}
    ]},
    {"smiles": "CCCCCCCCCCCC[C@@H](O)[C@@H]1CC[C@@H]([C@H](O)CCCCCCCCCCNC(=O)c2ccsc2)O1", "values": [
      {"measurement": "Activity", "setting": "[5]", "value": 153000},
      {"measurement": "CI", "setting": "U-251 [6]", "value": 0.972},
      {"measurement": "pEC50", "setting": "U-251 [7]", "value": 6.75}
    ]},
    {"smiles": "COCCOCCOCCOCCCCCCCCCCCCNC(=O)c1ccsc1", "values": [
      {"measurement": "Activity", "setting": "[5]", "value": 483000},
      {"measurement": "inhibition", "setting": "Glioblastoma stem cell [2]", "value": "inactive"},
      {"measurement": "inhibition", "setting": "Glioblastoma stem cell [4]", "value": "Active"}
    ]},
    {"smiles": "COCCOCCOCCOCCCCCCCCCCCCNC(=O)c1csc(Br)c1", "values": [
      {"measurement": "inhibition", "setting": "Glioblastoma stem cell [2]", "value": "inactive"}
    ]},
    {"smiles": "COCCOCCOCCOCCCCCCCCCCCCNC(=O)c1ccsc1C", "values": [
      {"measurement": "inhibition", "setting": "Glioblastoma stem cell [2]", "value": "inactive"}
    ]},
    {"smiles": "CCCCCCCCCCOCCOCCOCCOCCCCCCCCCCCCNC(=O)c1ccsc1", "values": [
      {"measurement": "Activity", "setting": "Glioblastoma cell line [8]", "value": "Active"},
      {"measurement": "CI", "setting": "U-251 [6]", "value": 0.325},
      {"measurement": "Activity", "setting": "Glioblastoma stem cell [1]; filed as activator", "value": "Active"},
      {"measurement": "pEC50", "setting": "U-251 [7]", "value": 7.37},
      {"measurement": "Activity", "setting": "Glioblastoma stem cell [9]", "value": "Active"},
      {"measurement": "Activity", "setting": "[10]", "value": "Non-Toxic"},
      {"measurement": "Activity", "setting": "Glioblastoma stem cell [11]", "value": "Active"},
      {"measurement": "Activity", "setting": "Glioblastoma cell line [12]", "value": "Active"},
      {"measurement": "Activity", "setting": "SW48", "value": 352, "unit": "mm3"},
      {"measurement": "inhibition", "setting": "Glioblastoma stem cell [2]", "value": "Active"},
      {"measurement": "Activity", "setting": "[13]", "value": "Non-Toxic"},
      {"measurement": "Activity", "setting": "Glioblastoma stem cell [3]; filed as activator", "value": "Active"},
      {"measurement": "Activity", "setting": "Glioblastoma stem cell [14]", "value": "Active"},
      {"measurement": "CI", "setting": "U-251 [15]", "value": 0.765}
    ]},
    {"smiles": "CCCOCCOCCOCCOCCCCCCCCCCCCNC(=O)c1ccsc1", "values": [
      {"measurement": "inhibition", "setting": "Glioblastoma stem cell [2]", "value": "inactive"},
      {"measurement": "inhibition", "setting": "Glioblastoma stem cell [4]", "value": "Active"}
    ]},
    {"smiles": "CCCCCCOCCOCCOCCOCCCCCCCCCCCCNC(=O)c1ccsc1", "values": [
      {"measurement": "inhibition", "setting": "Glioblastoma stem cell [2]", "value": "inactive"}
    ]},
    {"smiles": "COCCOCCOCCOCCCCCCCCCCCCNC(=O)c1csc(C)c1", "values": [
      {"measurement": "Activity", "setting": "Glioblastoma stem cell [1]", "value": "inactive"},
      {"measurement": "inhibition", "setting": "Glioblastoma stem cell [2]", "value": "inactive"},
      {"measurement": "Activity", "setting": "Glioblastoma stem cell [3]", "value": "inactive"}
    ]}
  ]
}
